Common to all, as to type: binding
For test [1], the target named is T1, CbuqPBP1 (Cyrtotrachelus buqueti, UniProt A0A1B3IIF7).
T1 construct: E. coli BL21(DE3), pET-28a(+); His-tag cut with enterokinase; about 400 bp insert, 16 kDa
T1 sequence (A0A1B3IIF7 17-143): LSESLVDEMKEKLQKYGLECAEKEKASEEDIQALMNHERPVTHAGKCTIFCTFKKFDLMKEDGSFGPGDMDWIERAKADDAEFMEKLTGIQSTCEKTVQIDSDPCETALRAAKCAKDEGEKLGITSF
Nature of the test: competitive displacement of 1-NPN fluorescence. To be noted: for IC50: read-out: IC50 (μM) / PBP1; for Ki: read-out: Ki (μM) / PBP1. From the text: (§1) competitive displacement of 1-NPN fluorescence on CbuqPBP1

The target in test [2] is T2, CbuqPBP1 (Cyrtotrachelus buqueti, UniProt A0A1B3IIF7, F69A).
T2 construct: E. coli BL21(DE3), pET-28a(+); His-tag cut with enterokinase; about 400 bp insert, 16 kDa
T2 sequence (A0A1B3IIF7 17-143 F69A): T1 sequence (A0A1B3IIF7 17-143)
Nature of the test: competitive displacement of 1-NPN fluorescence.
Description: as §1

Test [3] has as its target T2, CbuqPBP1. Kind of test: fluorescence titration, Scatchard plot.
For test [4], the target named is T3, CbuqPBP1 (Cyrtotrachelus buqueti, UniProt A0A1B3IIF7, H53A).
T3 construct: E. coli BL21(DE3), pET-28a(+); His-tag cut with enterokinase; about 400 bp insert, 16 kDa
T3 sequence (A0A1B3IIF7 17-143 H53A): T1 sequence (A0A1B3IIF7 17-143)
Nature of the test: fluorescence titration, Scatchard plot.

Test [5] has as its target T1, CbuqPBP1. Nature of the test: fluorescence titration, Scatchard plot.

With `c1ccc2scnc2c1` [benzothiazole], at CbuqPBP1 [1], the IC50 worked out at 13.4 µM and the Ki was determined as 9.82 µM. Besides, at CbuqPBP1 [2], the IC50 came out at 10.5 µM and the Ki turned out to be 7.3 µM.

Take `C[C@@H]1CC[C@H]2C(C)(C)[C@H]3C[C@@]12CC[C@@]3(C)O` [cedrol]: on CbuqPBP1 [1], the IC50 was determined as 30 µM and the Ki stood at 21.9 µM.

The Kd is the constant that tells how readily two partners part at equilibrium. A high value points to lower affinity. `c1ccc(Nc2cccc3ccccc23)cc1` [1-NPN]: the results for the Kd on CbuqPBP1 [3], at CbuqPBP1 [4] and at CbuqPBP1 [5] were 2.26 µM, 3.35 µM and 2.73 µM, respectively.

For the molecule `CCCCOC(=O)c1ccccc1C(=O)OCCCC` [dibutyl phthalate], at CbuqPBP1 [2], the IC50 was 20 µM and the Ki is 13.9 µM.

The record behind these values is paper PMC6796961, “Bioinformatic and biochemical analysis of the key binding sites of the pheromone binding protein of Cyrtotrachelus buqueti Guerin-Meneville (Coleoptera: Curculionidea)” (PeerJ, 2019).
